Peptide text beside a SMILES is read from it.

The target of one experiment is T1, FPR2 (Homo sapiens, UniProt P25090).
T1 construct: expressed in transfected cells; host or cells: RBL cells (RBL-FPR2)
T1 sequence (P25090 1-351): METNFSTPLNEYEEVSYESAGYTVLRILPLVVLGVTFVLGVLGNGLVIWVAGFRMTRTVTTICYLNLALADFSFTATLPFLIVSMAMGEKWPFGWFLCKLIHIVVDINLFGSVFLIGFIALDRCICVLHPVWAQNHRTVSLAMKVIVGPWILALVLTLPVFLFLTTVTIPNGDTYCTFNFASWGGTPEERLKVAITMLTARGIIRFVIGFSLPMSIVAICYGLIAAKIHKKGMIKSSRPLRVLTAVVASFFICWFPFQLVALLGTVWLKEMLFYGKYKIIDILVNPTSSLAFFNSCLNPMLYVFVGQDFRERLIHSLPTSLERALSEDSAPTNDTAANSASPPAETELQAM
Kind of experiment: Change in calcium activity by peptide (Fura-2) in RBL cells overexpressing FPR2. The class given is cell-based. The settings on record: calcium activity (Fura-2), graded per Table 3, read-out: EC50 for [Ca^2+] FPR2. The procedure:
The present inventors observed changes in calcium ion permeability to confirm whether the immunomodulatory peptide candidates prepared according to one example of the present invention activate the immune function of a living organism. Specifically, the concentration of calcium ions in cells was measured to confirm whether the peptides activate FPR2.
A peptide dissolved in water or 50% DMSO at a concentration of 0.5 mM was prepared by diluting it to an appropriate concentration in HBSS (Sigma, #55037C)+20 mM HEPES buffer.
In this experiment, the cells were cultured in DMEM (Lonza, #BE12-604F) containing 10% fetal bovine serum (FBS) and 1% penicillin-streptomycin under conditions of 37° C. and 5% CO2.
(§1) The day before measuring calcium activity, the cells were prepared at 3×10^5 cells per well in a 96-well flat clear bottom black plate (Costar, #3603). The prepared cells were treated with a Fura-2 QBT calcium kit (component A; Molecular Devices, #8197) at the same volume per well. After incubation at 37° C. for 1 hour, the cells were incubated in a dark room at room temperature for 30 minutes. After the Fura-2-treated cells, the prepared peptide, and a dedicated tip were placed at each section of FlexStation 3 Multi-Mode Microplate Reader (Molecular Devices, #Flex3), changes in calcium activity caused by the peptides were measured using SoftMax Pro 7 Software (Molecular Devices, #FLEX3-INSTALL-OS).

For the next experiment, the target named is T2, FPR1 (Homo sapiens, UniProt P21462).
T2 sequence (P21462 1-350): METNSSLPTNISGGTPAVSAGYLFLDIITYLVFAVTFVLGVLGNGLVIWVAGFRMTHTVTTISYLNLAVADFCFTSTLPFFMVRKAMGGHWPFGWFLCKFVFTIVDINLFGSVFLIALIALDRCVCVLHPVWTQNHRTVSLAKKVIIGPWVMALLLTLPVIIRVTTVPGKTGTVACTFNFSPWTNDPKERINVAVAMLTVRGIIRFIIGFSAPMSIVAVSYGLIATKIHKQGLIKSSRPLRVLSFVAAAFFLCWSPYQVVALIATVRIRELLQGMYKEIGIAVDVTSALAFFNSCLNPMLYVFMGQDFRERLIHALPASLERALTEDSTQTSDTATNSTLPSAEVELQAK
Kind of experiment: Change in calcium activity by peptide, FPR1 activation effect. The class given is cell-based. The settings on record: calcium activity (Fura-2), graded per Table 3, read-out: EC50 for [Ca^2+] FPR1. Here is the method: as §1, with “#FLEX3-INSTALL-OS). […]” for “#FLEX3-INSTALL-OS).”

For orientation: EC50 means the midpoint of the concentration-response curve. Regarding `CSCC[C@H](NC(=O)[C@@H]1CCCN1)C(=O)N[C@@H](CCCCN)C(=O)N[C@@H](Cc1ccc(O)cc1)C(=O)N[C@@H](CCCCN)C(=O)N[C@H](C(=O)N[C@H](CCSC)C(N)=O)C(C)C` [Peptide 25] (HELM PEPTIDE1{P.M.K.Y.K.V.[dM].[am]}$$$$V2.0), the EC50 on FPR2 is less than 10 nM; on FPR1, greater than 10000 nM.

With `CSCC[C@H](NC(=O)[C@@H]1CCCN1C(C)=O)C(=O)N[C@@H](CCCCN)C(=O)N[C@@H](Cc1ccc(O)cc1)C(=O)N[C@@H](CCCCN)C(=O)N[C@H](C(=O)N[C@H](CCSC)C(N)=O)C(C)C` [Peptide 26] (HELM PEPTIDE1{[ac].P.M.K.Y.K.V.[dM].[am]}$$$$V2.0), the concentration for a half-maximal effect (EC50) on FPR2 was less than 10 nM; on FPR1 it was greater than 10000 nM.

For the molecule `CCCC(=O)N1CCC[C@H]1C(=O)N[C@@H](CCSC)C(=O)N[C@@H](CCCCN)C(=O)N[C@@H](Cc1ccc(O)cc1)C(=O)N[C@@H](CCCCN)C(=O)N[C@H](C(=O)N[C@H](CCSC)C(N)=O)C(C)C` [Peptide 27] (HELM PEPTIDE1{[CCCC(=O)[*:2]].P.M.K.Y.K.V.[dM].[am]}$$$$V2.0), the EC50 is less than 10 nM on FPR2 and greater than 10000 nM at FPR1.

For the molecule `CCCCCCCC(=O)N1CCC[C@H]1C(=O)N[C@@H](CCSC)C(=O)N[C@@H](CCCCN)C(=O)N[C@@H](Cc1ccc(O)cc1)C(=O)N[C@@H](CCCCN)C(=O)N[C@H](C(=O)N[C@H](CCSC)C(N)=O)C(C)C` [Peptide 28] (HELM PEPTIDE1{[CCCCCCCC(=O)[*:2]].P.M.K.Y.K.V.[dM].[am]}$$$$V2.0), the EC50 was less than 10 nM on FPR2 and greater than 10000 nM on FPR1.

Consider `CSCC[C@@H](NC(=O)[C@@H](NC(=O)[C@H](CCCNC(=N)N)NC(=O)[C@H](Cc1ccc(O)cc1)NC(=O)[C@H](CCCNC(=N)N)NC(=O)[C@H](Cc1c[nH]c2ccccc12)NC(=O)[C@@H](N)CCCNC(=N)N)C(C)C)C(N)=O` [Peptide 29] (HELM PEPTIDE1{R.W.R.Y.R.V.[dM].[am]}$$$$V2.0), for which the values for the EC50 at FPR2 and on FPR1 were less than 10 nM and greater than 10000 nM, respectively.

With `CSCC[C@H](NC(=O)[C@@H](N)CCCNC(=N)N)C(=O)N[C@@H](CCCNC(=N)N)C(=O)N[C@@H](Cc1ccc(O)cc1)C(=O)N[C@@H](CCCNC(=N)N)C(=O)N[C@H](C(=O)N[C@H](CCSC)C(N)=O)C(C)C` [Peptide 30] (HELM PEPTIDE1{R.M.R.Y.R.V.[dM].[am]}$$$$V2.0), the EC50 is less than 10 nM on FPR2 and greater than 10000 nM at FPR1.

In the case of `CSCC[C@H](NC(=O)[C@@H](N)Cc1c[nH]cn1)C(=O)N[C@@H](CCCNC(=N)N)C(=O)N[C@@H](Cc1ccc(O)cc1)C(=O)N[C@@H](CCCNC(=N)N)C(=O)N[C@H](C(=O)N[C@H](CCSC)C(N)=O)C(C)C` [Peptide 31] (HELM PEPTIDE1{H.M.R.Y.R.V.[dM].[am]}$$$$V2.0), the EC50 is less than 10 nM at FPR2 and 1000 to 10000 nM at FPR1.

As to `CSCC[C@@H](NC(=O)[C@H](Cc1ccc(O)cc1)NC(=O)[C@H](CCCCN)NC(=O)[C@H](Cc1ccc(O)cc1)NC(=O)[C@H](CCCNC(=N)N)NC(=O)[C@H](Cc1c[nH]c2ccccc12)NC(=O)[C@@H](N)CCCNC(=N)N)C(N)=O` [Peptide 32] (HELM PEPTIDE1{R.W.R.Y.K.Y.[dM].[am]}$$$$V2.0), the EC50 was 11 to 100 nM at FPR2 and greater than 10000 nM on FPR1.

Take `CSCC[C@@H](NC(=O)[C@H](Cc1ccc(O)cc1)NC(=O)[C@H](CCCCN)NC(=O)[C@H](Cc1ccc(O)cc1)NC(=O)[C@H](CCCNC(=N)N)NC(=O)[C@H](Cc1c[nH]c2ccccc12)NC(=O)[C@H](CCCNC(=N)N)NC(C)=O)C(N)=O` [Peptide 33] (HELM PEPTIDE1{[ac].R.W.R.Y.K.Y.[dM].[am]}$$$$V2.0): the EC50 at FPR2 is less than 10 nM; on FPR1, greater than 10000 nM.

`CCCCCCCC(=O)N[C@@H](CCCNC(=N)N)C(=O)N[C@@H](Cc1c[nH]c2ccccc12)C(=O)N[C@@H](CCCNC(=N)N)C(=O)N[C@@H](Cc1ccc(O)cc1)C(=O)N[C@@H](CCCCN)C(=O)N[C@@H](Cc1ccc(O)cc1)C(=O)N[C@H](CCSC)C(N)=O` [Peptide 34] (HELM PEPTIDE1{[CCCCCCCC(=O)[*:2]].R.W.R.Y.K.Y.[dM].[am]}$$$$V2.0): the EC50 on FPR2 was 11 to 100 nM; at FPR1, greater than 10000 nM.

`CSCC[C@@H](NC(=O)[C@H](Cc1ccc(O)cc1)NC(=O)[C@H](CCCCN)NC(=O)[C@H](Cc1ccc(O)cc1)NC(=O)[C@H](CCCNC(=N)N)NC(=O)[C@@H](N)Cc1c[nH]c2ccccc12)C(N)=O` [Peptide 35] (HELM PEPTIDE1{W.R.Y.K.Y.[dM].[am]}$$$$V2.0): the values for the EC50 at FPR2 and at FPR1 were less than 10 nM and greater than 10000 nM, respectively.

Regarding `CSCC[C@@H](NC(=O)[C@H](Cc1ccc(O)cc1)NC(=O)[C@H](CCCCN)NC(=O)[C@H](Cc1ccc(O)cc1)NC(=O)[C@H](CCCCN)NC(=O)[C@H](Cc1c[nH]c2ccccc12)NC(=O)[C@H](CCCCN)NC(C)=O)C(N)=O` [Peptide 36] (HELM PEPTIDE1{[ac].K.W.K.Y.K.Y.[dM].[am]}$$$$V2.0), the EC50 was less than 10 nM on FPR2 and greater than 10000 nM on FPR1.

For `CCCC(=O)N[C@@H](Cc1c[nH]cn1)C(=O)N[C@@H](Cc1c[nH]c2ccccc12)C(=O)N[C@@H](CCCCN)C(=O)N[C@@H](Cc1ccc(O)cc1)C(=O)N[C@@H](CCCCN)C(=O)N[C@@H](Cc1ccc(O)cc1)C(=O)N[C@H](CCSC)C(N)=O` [Peptide 37] (HELM PEPTIDE1{[CCCC(=O)[*:2]].H.W.K.Y.K.Y.[dM].[am]}$$$$V2.0), the values for the EC50 at FPR2 and on FPR1 were less than 10 nM and greater than 10000 nM, respectively.

Take `CSCC[C@H](N)C(=O)N[C@@H](CCCNC(=N)N)C(=O)N[C@@H](Cc1ccc(O)cc1)C(=O)N[C@@H](CCCCN)C(=O)N[C@@H](Cc1ccc(O)cc1)C(=O)N[C@H](CCSC)C(N)=O` [Peptide 41] (HELM PEPTIDE1{M.R.Y.K.Y.[dM].[am]}$$$$V2.0): the EC50 on FPR2 was less than 10 nM; on FPR1 it was greater than 10000 nM.

Regarding `CSCC[C@H](NC(C)=O)C(=O)N[C@@H](CCCNC(=N)N)C(=O)N[C@@H](Cc1ccc(O)cc1)C(=O)N[C@@H](CCCCN)C(=O)N[C@@H](Cc1ccc(O)cc1)C(=O)N[C@H](CCSC)C(N)=O` [Peptide 42] (HELM PEPTIDE1{[ac].M.R.Y.K.Y.[dM].[am]}$$$$V2.0), the EC50 was 11 to 100 nM at FPR2 and greater than 10000 nM on FPR1.

With `CCCC(=O)N[C@@H](CCSC)C(=O)N[C@@H](CCCNC(=N)N)C(=O)N[C@@H](Cc1ccc(O)cc1)C(=O)N[C@@H](CCCCN)C(=O)N[C@@H](Cc1ccc(O)cc1)C(=O)N[C@H](CCSC)C(N)=O` [Peptide 43] (HELM PEPTIDE1{[CCCC(=O)[*:2]].M.R.Y.K.Y.[dM].[am]}$$$$V2.0), the EC50 was 11 to 100 nM at FPR2 and greater than 10000 nM at FPR1.

Regarding `CSCC[C@H](NC(=O)[C@@H](N)Cc1c[nH]cn1)C(=O)N[C@@H](CCCNC(=N)N)C(=O)N[C@@H](Cc1ccc(O)cc1)C(=O)N[C@@H](CCCCN)C(=O)N[C@@H](Cc1ccc(O)cc1)C(=O)N[C@H](CCSC)C(N)=O` [Peptide 44] (HELM PEPTIDE1{H.M.R.Y.K.Y.[dM].[am]}$$$$V2.0), the EC50 at FPR2 is 11 to 100 nM; at FPR1, greater than 10000 nM.

As for `CCCC(=O)N[C@@H](Cc1c[nH]cn1)C(=O)N[C@@H](CCSC)C(=O)N[C@@H](CCCNC(=N)N)C(=O)N[C@@H](Cc1ccc(O)cc1)C(=O)N[C@@H](CCCCN)C(=O)N[C@@H](Cc1ccc(O)cc1)C(=O)N[C@H](CCSC)C(N)=O` [Peptide 45] (HELM PEPTIDE1{[CCCC(=O)[*:2]].H.M.R.Y.K.Y.[dM].[am]}$$$$V2.0), the values for the EC50 on FPR2 and on FPR1 were less than 10 nM and greater than 10000 nM, respectively.

These data come from patent US20250361268A1, “NOVEL ANTI-INFLAMMATORY PEPTIDE AND USE THEREOF” (NOVACELL TECHNOLOGY INC., priority 2022, published 2025).
